These results are taken from ChEMBL document CHEMBL4715883, “Novel BuChE-IDO1 inhibitors from sertaconazole: Virtual screening, chemical optimization and molecular modeling studies” (Bioorg Med Chem Lett, 2021).

For data set [1], the target named is Acetylcholinesterase (Electrophorus electricus) (UniProt O42275). Kind of data set: Inhibition of electric eel […] iodide as substrate at 50 uM preincubated for 5 mins followed by substrate addition and measured after 2 mins by Ellman's method relative to control. Particulars: time 7.0 min. A general note: DTNB colorimetry detects thiols as they appear.
Acetylcholinesterase (Electrophorus electricus), sequence (O42275 24-633 limits assumed): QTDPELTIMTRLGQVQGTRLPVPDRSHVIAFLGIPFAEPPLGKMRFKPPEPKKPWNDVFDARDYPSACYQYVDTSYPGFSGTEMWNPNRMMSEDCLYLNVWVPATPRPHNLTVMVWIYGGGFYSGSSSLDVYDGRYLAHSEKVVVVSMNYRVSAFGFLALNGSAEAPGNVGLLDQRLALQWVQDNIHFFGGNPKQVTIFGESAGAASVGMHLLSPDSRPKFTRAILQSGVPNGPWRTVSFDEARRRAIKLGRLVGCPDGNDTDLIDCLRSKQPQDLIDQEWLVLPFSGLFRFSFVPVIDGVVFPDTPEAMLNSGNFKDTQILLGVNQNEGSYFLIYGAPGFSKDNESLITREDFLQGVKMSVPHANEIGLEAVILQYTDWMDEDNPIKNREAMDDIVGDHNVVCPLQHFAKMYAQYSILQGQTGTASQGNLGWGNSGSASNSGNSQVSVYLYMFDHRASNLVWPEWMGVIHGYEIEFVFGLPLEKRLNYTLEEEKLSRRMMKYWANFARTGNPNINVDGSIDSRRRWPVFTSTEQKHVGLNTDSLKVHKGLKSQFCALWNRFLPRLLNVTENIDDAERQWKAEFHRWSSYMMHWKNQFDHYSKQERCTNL

Data set [2] addresses Indoleamine 2,3-dioxygenase 1 (Homo sapiens, UniProt P14902). Description: Inhibition of human N-terminal IDO1 expressed in Escherichia coli BL21 A1 cells using L-tryptophan as substrate measured after 30 mins by HPLC analysis.
The target of another data set is Cholinesterase (Equus caballus, UniProt P81908). Kind of data set: Inhibition of equine serum BuChE using butyrylthiocholine iodide as substrate preincubated for 5 mins followed by substrate addition and measured after 2 mins by Ellman's method. It counts as cell-free.
Cholinesterase, sequence (P81908 whole entry): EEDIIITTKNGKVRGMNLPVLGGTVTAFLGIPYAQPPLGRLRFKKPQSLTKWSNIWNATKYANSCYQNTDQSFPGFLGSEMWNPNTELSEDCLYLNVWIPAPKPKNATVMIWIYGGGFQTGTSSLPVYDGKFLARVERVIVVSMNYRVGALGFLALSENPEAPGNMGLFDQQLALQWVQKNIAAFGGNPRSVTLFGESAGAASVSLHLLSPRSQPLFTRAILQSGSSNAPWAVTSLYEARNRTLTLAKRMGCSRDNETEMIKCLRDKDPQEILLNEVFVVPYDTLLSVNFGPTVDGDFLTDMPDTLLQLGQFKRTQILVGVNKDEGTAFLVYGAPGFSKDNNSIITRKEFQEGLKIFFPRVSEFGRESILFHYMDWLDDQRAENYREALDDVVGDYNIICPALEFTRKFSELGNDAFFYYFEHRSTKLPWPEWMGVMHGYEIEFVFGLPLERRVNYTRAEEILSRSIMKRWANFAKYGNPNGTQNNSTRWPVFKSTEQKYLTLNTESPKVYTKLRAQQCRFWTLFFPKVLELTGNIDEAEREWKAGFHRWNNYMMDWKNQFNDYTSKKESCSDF
Data set [3] can be described thus: Selectivity index, ratio of IC50 for inhibition of electric eel […] iodide as substrate to IC50 for inhibition of equine serum BuChE using butyrylthiocholine iodide as substrate.
For data set [4], the species on record is Homo sapiens. Kind of data set: inhibition of amyloid beta (1 to 42) (unknown origin) aggregation at 50 uM by ThT fluorescence assay relative to control.
For another data set, the target named is Acetylcholinesterase (Electrophorus electricus, UniProt O42275). Description: Inhibition of electric eel […] iodide as substrate preincubated for 5 mins followed by substrate addition and measured after 2 mins by Ellman's method.
Acetylcholinesterase, sequence (O42275 whole entry): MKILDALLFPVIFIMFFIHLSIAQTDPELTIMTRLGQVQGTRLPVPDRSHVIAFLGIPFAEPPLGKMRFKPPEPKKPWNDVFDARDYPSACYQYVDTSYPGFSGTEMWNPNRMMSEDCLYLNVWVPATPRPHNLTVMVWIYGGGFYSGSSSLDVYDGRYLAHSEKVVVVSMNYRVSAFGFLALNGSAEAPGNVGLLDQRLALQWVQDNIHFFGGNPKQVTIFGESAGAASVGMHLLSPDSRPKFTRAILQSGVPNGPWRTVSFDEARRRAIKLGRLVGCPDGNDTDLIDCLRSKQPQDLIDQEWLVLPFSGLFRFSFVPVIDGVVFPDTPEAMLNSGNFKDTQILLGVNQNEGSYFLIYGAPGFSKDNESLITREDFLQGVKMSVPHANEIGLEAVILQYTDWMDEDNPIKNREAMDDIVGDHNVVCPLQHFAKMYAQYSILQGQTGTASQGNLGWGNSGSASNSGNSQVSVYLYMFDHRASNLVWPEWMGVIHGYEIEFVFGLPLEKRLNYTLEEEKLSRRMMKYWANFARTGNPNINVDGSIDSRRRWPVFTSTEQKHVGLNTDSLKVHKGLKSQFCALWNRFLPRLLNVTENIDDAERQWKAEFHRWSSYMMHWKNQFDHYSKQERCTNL
Data set [5] in a line: Cytotoxicity against human SH-SY5Y cells assessed as reduction in cell viability after 48 hrs by MTT assay. The format is cell-based. Particulars: read-out: LD50.
The species named for data set [6] is Homo sapiens. Kind of data set: Inhibition of amyloid beta (1 to 42) (unknown origin) aggregation by ThT fluorescence assay. The settings on record: dose 10-50 µM.

The structures appear in SMILES notation. Where only a bound is given, the exact number is not on record here.

Indoleamine 2,3-dioxygenase 1, sequence (P14902 whole entry): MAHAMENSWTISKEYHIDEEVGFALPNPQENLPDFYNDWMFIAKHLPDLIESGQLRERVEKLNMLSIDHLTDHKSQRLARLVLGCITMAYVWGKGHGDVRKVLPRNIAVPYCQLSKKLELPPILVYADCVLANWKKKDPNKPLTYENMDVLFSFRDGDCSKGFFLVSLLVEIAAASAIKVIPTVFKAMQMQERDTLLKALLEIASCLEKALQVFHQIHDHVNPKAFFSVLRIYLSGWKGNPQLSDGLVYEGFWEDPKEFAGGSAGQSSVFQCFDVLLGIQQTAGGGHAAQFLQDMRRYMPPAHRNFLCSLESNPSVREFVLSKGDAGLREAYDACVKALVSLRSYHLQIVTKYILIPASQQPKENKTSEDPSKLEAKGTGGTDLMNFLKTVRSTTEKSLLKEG

The inhibition is the percentage by which the read-out fell short of the control. One may read the IC50 as the midpoint of a concentration-inhibition curve. In the case of `Clc1ccc(C(Cn2ccnc2)OCc2nc3ccccc3s2)cc1` (stereo not drawn), the inhibition in data set [1] is 17.8%. The IC50 in data set [2] turned out to be 87 µM; on Cholinesterase, 7.9 µM.
For the molecule `Clc1ccc(C(Cn2ccnc2)OCc2nc3ccccc3s2)c(Cl)c1` (stereo not drawn), the Ratio IC50 in data set [3] was 3.4. Moreover, the inhibition in the data set filed under Homo sapiens [4] is 52.2%; in the data set listed under Homo sapiens [6] it was “Dose-dependent effect”. For the same molecule, the figures for the concentration for half-maximal inhibition (IC50) (at Acetylcholinesterase; in data set [2]; at Cholinesterase) were 13.1 µM, 6.7 µM and 3.9 µM, respectively. Also, the CC50 at 48 h in data set [5] stood at 11.8 µM.
As to `Clc1ccc(C(Cn2ccnc2)OCc2cc3ccccc3s2)c(Cl)c1` (stereo not drawn), the Ratio IC50 in data set [3] turned out to be 11. Also, the half-inhibitory concentration (IC50) against Acetylcholinesterase was 15.5 µM; in data set [2], 17.7 µM; against Cholinesterase it was 1.4 µM.
For `Clc1ccc(C(Cn2ccnc2)OCc2cccc3ccccc23)c(Cl)c1` (stereo not drawn) the same measures were 22.6, 90.4 µM, 48.6 µM and 4 µM.
For the molecule `Fc1ccc(C(Cn2ccnc2)OCc2nc3ccccc3s2)cc1F` (stereo not drawn), the Ratio IC50 in data set [3] is over 50. Also, the inhibition in data set [1] turned out to be 7.2%. In addition, the IC50 in data set [2] was found to be 35.4 µM; at Cholinesterase, 1.1 µM.
For `Clc1ccc(C(Cn2ccnc2)OCc2csc3c(Cl)cccc23)c(Cl)c1` (stereo not drawn) [SERTACONAZOLE], the IC50 in data set [2] stood at 3.8 µM; against Cholinesterase, 7.4 µM.
In data set [1], `Brc1cccc(C(Cn2ccnc2)OCc2nc3ccccc3s2)c1` (stereo not drawn) gave an inhibition of 25.5%. For the same molecule, the half-maximal inhibitory concentration (IC50) in data set [2] was 3.7 µM; against Cholinesterase, 15.1 µM.
Take `Clc1ccc(C(Cn2ccnc2)OCc2nc3ccccc3o2)c(Cl)c1` (stereo not drawn): the Ratio IC50 in data set [3] came out at 2.5. The 50% inhibitory concentration (IC50) at Acetylcholinesterase stood at 44.6 µM; in data set [2], 136 µM; at Cholinesterase, 17.6 µM.
For `Clc1ccccc1C(Cn1ccnc1)OCc1nc2ccccc2s1` (stereo not drawn), the 50% inhibitory concentration (IC50) was found to be 58.7 µM on Acetylcholinesterase, 59.6 µM in data set [2] and 11.3 µM on Cholinesterase. Also, the inhibition in data set [1] amounted to 47.4%.
Take `Fc1cc(C(Cn2ccnc2)OCc2nc3ccccc3s2)ccc1Cl` (stereo not drawn): in data set [1], the inhibition is 22.1%. In addition, the half-maximal inhibitory concentration (IC50) in data set [2] came to 57.7 µM; on Cholinesterase, 6.2 µM.
Take `Clc1ccc(C(Cn2ccnc2)OCc2nc3ccccc3s2)cc1Cl` (stereo not drawn): the Ratio IC50 in data set [3] is over 50. The molecule further yielded an inhibition in data set [1] of 5%. Moreover, the figures for the half-inhibitory concentration (IC50) (in data set [2]; against Cholinesterase) were 3 µM and 1 µM, respectively.
As for `Clc1ccc(C(Cn2ccnc2)OCc2cccnc2)c(Cl)c1` (stereo not drawn), the Ratio IC50 in data set [3] came out at 0.3. Also, the values for the IC50 (against Acetylcholinesterase; in data set [2]; against Cholinesterase) were 11.9 µM, 94.5 µM and 41.7 µM, respectively.
Taken in the same sequence, the figures for `Clc1ccc(COC(Cn2ccnc2)c2ccc(Cl)cc2Cl)c(Cl)c1` (stereo not drawn) [MICONAZOLE] were 0.6, 2.4 µM, 2.9 µM and 4.3 µM.
Regarding `Clc1cccc(C(Cn2ccnc2)OCc2nc3ccccc3s2)c1` (stereo not drawn), the inhibition in data set [1] was determined as 19.9%. Moreover, the values for the IC50 (in data set [2]; against Cholinesterase) were 25 µM and 6 µM, respectively.
For `Fc1ccc(C(Cn2ccnc2)OCc2nc3ccccc3s2)cc1` (stereo not drawn) the same measures were 11.4%, 73.6 µM and 3.9 µM.
Taken in the same sequence, the figures for `Brc1ccc(C(Cn2ccnc2)OCc2nc3ccccc3s2)cc1` (stereo not drawn) were 21%, 49.3 µM and 10 µM.
In the case of `Clc1ccc(C(Cn2ccnc2)OCc2ccsc2)c(Cl)c1` (stereo not drawn), the Ratio IC50 in data set [3] was found to be 0.6. In addition, the IC50 against Acetylcholinesterase is 18.3 µM; in data set [2], 63.6 µM; against Cholinesterase, 31.9 µM.
Consider `Clc1ccc(C(Cn2ccnc2)OCc2ccc3ccccc3c2)c(Cl)c1` (stereo not drawn), for which the Ratio IC50 in data set [3] was found to be 47.8. For the same molecule, the inhibition in the data set filed under Homo sapiens [4] was 48.3%; in the data set listed under Homo sapiens [6], “Dose-dependent effect”. For the same molecule, the IC50 is 4.3 µM against Acetylcholinesterase, 22.3 µM in data set [2] and 0.09 µM at Cholinesterase. In addition, in data set [5], the CC50 at 48 h came out at 9.8 µM.
In data set [1], `Fc1ccc(C(Cn2ccnc2)OCc2nc3ccccc3s2)c(F)c1` (stereo not drawn) returned an inhibition of 12.4%. For the same molecule, the IC50 in data set [2] came out at 133 µM; at Cholinesterase, 5.7 µM.
